What was measured:
[1] = Mice weight under high-lipid diet, 3-week pharmaco-nutritional regimen; format: in vivo; details: after 3-week regimen; vs control regimen
Procedure: (§1) 100 male mice C57 Black 6/J aged 5 weeks (January, France) were accommodated in individual cages in the pet center of the INRA center, Theix, in thermoregulated premises (20-22° C.) and submitted to alternating 12 hour-cycles of light and darkness. After a week of acclimatization under a <<control regimen>> (D12450B, Research Diet, USA), 20 mice continued this regimen for 11 weeks. The other 80 mice were fed with a ? high-lipid regimen ? (HL) (D12451, Research Diet, USA) for 8 weeks. The total calorie intake, in percentages, provided for both the <> and HL regimens 20% proteins and respectively, 70% and 35% carbohydrates and 10% and 45% lipids. […] The mice weight was measured every 2 weeks.

[2] = Body composition measurement through Echo MRI (body fat, lean body mass); format: in vivo, mice; details: for Total body fat vs control regimen (Echo MRI): day 80, vs mice under control regimen; for Body fat: difference with high-lipid diet alone (HL), mice, 3 weeks
Procedure: as §1
Body fat and lean body mass of awake mice after 15 h fasting were quantified using nuclear magnetic resonance (Echo MRI, Houston, USA) at day 80 of the experiment.

[3] = Organ and tissue weights at sacrifice (peri-epididymal adipose tissue, leg muscles, liver); format: in vivo; details: vs mice under control regimen
Procedure: as §1
(§2) Prior to being sacrificed, mice after 15 h fasting were anesthetized through barbital intraperitoneal injection (1.5 μl/g). Blood was collected in EDTA-containing specimen collectors before being centrifuged (12000 rpm, 4 min, room temperature). Plasma was thereafter collected, distributed in aliquots and frozen in liquid nitrogen, then stored at −80° C. The adipose peri-epididymal tissue, liver and leg triceps muscle (gastrocnemius muscle), tibialis and quadriceps muscles were weighted, frozen in liquid nitrogen, then stored at −80° C.

[4] = Plasma dosages (non-esterified fatty acids, triglycerides, cholesterol, glucose); format: in vivo, mice; details: for Cholesterolemia compared to control mice: ANOVA p=0.01
Procedure: as §2, with “100 male mice C57 Black 6/J aged 5 weeks (January, France) were accommodated in individual cages in the pet center of the INRA center, Theix, in thermoregulated premises (20-22° C.) and submitted to alternating 12 hour-cycles of light and darkness. […] The mice weight was measured every 2 weeks. Prior” for “Prior”

[5] = Glucose tolerance measurement (ipGTT test); format: in vivo, mice; details: for Glucose tolerance: difference with high-lipid diet alone (HL), mice, 3 weeks; for Glucose tolerance compared to the control regimen: ipGTT, glucose 2 mg/g i.p., vs control
Procedure: as §1
(§3) After a 3-week pharmaco-nutritional regimen, measurements of the insulin sensitivity and glucose tolerance were conducted respectively on 10 mice of each group after a fasting night. Insulin sensitivity measurement: basal glycemia was evaluated using a glucose meter (Glucotouch, Lifescan, USA) on blood droplets collected from the tail. An insulin dose of 0.75 mU/g of weight was administered through intraperitoneal injection and glycemia was evaluated 15, 30, 45, 60 and 120 minutes post injection. Glucose tolerance measurement: a glucose dose (2 mg/g of weight) was administered through intraperitoneal injection. Glycemia was evaluated as for the insulin sensitivity test before and 15, 30, 60 and 120 minutes post injection.
Glucose tolerance measurement (ipGTT test): glucose tolerance is defined as the ability for a mouse to normalize its glycemia when injecting glucose. It is evaluated through the calculation of the area under the curve of the glycemia evolution after an injection of glucose.

[6] = Insulin sensitivity measurement (ipITT test); format: in vivo, mice; details: for Insulin sensitivity: difference with high-lipid diet alone (HL), mice, 3 weeks
Procedure: as §1, §3

[7] = taking statin in the long term; cited from earlier work
[8] = conclusions of several clinical assays; cited from earlier work
[9] = difference with high-lipid diet alone (HL), mice, 3 weeks

Row | SMILES | Mice weight as compared to the controls [1] | Total body fat vs control regimen (Echo MRI) [2] | Body fat [2] [%] | Weight of peri-epididymal adipose tissue vs control regimen [3] | Plasma levels: Non esterified fatty acids [4, 9] [%] | Plasma levels: Triglycerides [4, 9] [%] | Plasma levels of non-esterified fatty acids compared to control mice ([4]; vs control mice) | Triglyceridemia compared to control mice ([4]; vs control mice) | Cholesterolemia compared to control mice ([4]; vs control mice) | Glucose tolerance [5] | Glucose tolerance compared to the control regimen [5] | Insulin sensitivity [6] | Insulin sensitivity compared to controls ([6]; ipITT, insulin 0.75 mU/g i.p., vs control) | Influence on body fat [7] | Development of type 2 diabetes [8]
1 | NC(=O)NCCC[C@H](N)C(=O)O [L-citrulline, L-Citrulline] | significantly higher | +100% | −7 | doubled | −24 | −15 | at a similar level compared to the control mice | bring triglyceridemia back to the level of that obtained in control mice | significant increase in cholesterolemia | +7% | significant reduction of glucose tolerance | +5% | tend to be less sensitive to insulin | – | –
2 | CC(C)c1c(C(=O)Nc2ccccc2)c(-c2ccccc2)c(-c2ccc(F)cc2)n1CC[C@@H](O)C[C@@H](O)CC(=O)O [Statin, Atorvastatin] | significantly higher | +87% | −13 | doubled | – | – | – | bring triglyceridemia back to the level of that obtained in control mice | significant increase in cholesterolemia | +11% | significant reduction of glucose tolerance | +31% | – | has not any positive influence on body fat | would promote the development of type 2 diabetes
3 | CC(C)c1nc(N(C)S(C)(=O)=O)nc(-c2ccc(F)cc2)c1/C=C/[C@@H](O)C[C@@H](O)CC(=O)O [rosuvastatin] | – | – | – | – | – | – | – | – | – | – | – | – | – | – | would promote the development of type 2 diabetes
